Experiments:
[1] = target: T1, Rat Kidney Medullary V2 Receptors (vasopressin V2) (Rattus norvegicus, UniProt Q00788); assay: Binding Assay to Rat Kidney Medullary V2 Receptors; conditions: rat kidney medullary V2, [3H]Arg8-vasopressin
T1 construct: Medullary tissues from rat kidneys are dissected out; from tissue; host or cells: rat kidney medulla membranes
Experimental: Binding Assay to Rat Kidney Medullary V2 Receptors
Medullary tissues from rat kidneys are dissected out, cut into small pieces and let soak in a […] sodium chloride solution containing 1.0 mM EDTA with many changes of the liquid phase, until the solution is clear of blood. The tissue is homogenized in a 0.25M sucrose solution containing 1.0 mM EDTA and 0.1 mM PMSF using a Potter-Elvehjem homogenizer with a teflon pestle. The homogenate is filtered through several layers (4 layers) of cheese cloth. The filtrate is rehomogenized using a dounce homogenizer, with a tight fitting pestle. The final homogenate is contrifuged at 1500×g for 15 min. The nuclear pellet is discarded and the supernatant fluid recentrifuged at 40,000×g for 30 min. The resulting pellet formed contains a dark inner part with the exterior, slightly pink. The pink outer part is suspended in a small amount of 50.0 mMTris.HCl buffer, pH 7.4. The protein content is determined by the Lowry's method (Lowry et al, J. Biol. Chem., 1953). The membrane suspension is stored at -70° C., in 50.0 mMTris.HCl, containing 0.2% inactivated BSA and 0.1 mM PMSF in aliquots of 1.0 ml containing 10.0 mg protein per ml of suspension until use in subsequent binding experiments.
For binding experiments, the following is added in μl volume to wells of a 96 well format of a microtiter plate: 100.0 μl of 100.0 mM Tris.HCl buffer containing 0.2% heat inactivated BSA, 10.0 mM MgCl2 and a mixture of protease inhibitors: leupeptin, 1.0 mg %; aprotinin, 1.0 mg %; 1,10-phenanthroline, 2.0 mg %; trypsin inhibitor, 10.0 mg % and 0.1 mM PMSF, 20.0 μl of [^3 H]Arginine^8, vasopressin (S.A. 75.0 Ci/mmole) at 0.8 nM and the reaction initiated by the addition of 80.0 μl of tissue membranes (200.0 μg tissue protein). The plates are left undisturbed on the bench top for 120 min. to reach equilibrium. Non-specific binding is assessed in the presence of 1.0 μM of unlabeled ligand, added in 20 μl volume. For test compounds, these are solubilized in 50% dimethylsulfoxide (DMSO) and added in 20.0 μl volume to a final incubation volume of 200 μl. Upon completion of binding, the content of each well is filtered off, using a Brandel® cell Harvester (Gaithersburg, Md.). The radioactivity trapped on the filter disk by the ligand-receptor complex is assessed by liquid scintillation counting in a Packard LS Counter, with an efficiency of 65% for tritium. The data are analyzed for IC50 values by the LUNDON-2 program for competition (LUNDON SOFTWARE, OH).

[2] = target: T2, Vasopressin V1 Receptor Subtype in Human Platelet Membranes (Homo sapiens, UniProt P37288); assay: Binding to V1 Receptor Subtype in Human Platelet membranes
T2 construct: tissue Hudson Valley Blood Services, Westchester Medical Center, Valhalla, N.Y; host or cells: human platelet membranes from frozen platelet rich plasma
T2 sequence (P37288 whole entry): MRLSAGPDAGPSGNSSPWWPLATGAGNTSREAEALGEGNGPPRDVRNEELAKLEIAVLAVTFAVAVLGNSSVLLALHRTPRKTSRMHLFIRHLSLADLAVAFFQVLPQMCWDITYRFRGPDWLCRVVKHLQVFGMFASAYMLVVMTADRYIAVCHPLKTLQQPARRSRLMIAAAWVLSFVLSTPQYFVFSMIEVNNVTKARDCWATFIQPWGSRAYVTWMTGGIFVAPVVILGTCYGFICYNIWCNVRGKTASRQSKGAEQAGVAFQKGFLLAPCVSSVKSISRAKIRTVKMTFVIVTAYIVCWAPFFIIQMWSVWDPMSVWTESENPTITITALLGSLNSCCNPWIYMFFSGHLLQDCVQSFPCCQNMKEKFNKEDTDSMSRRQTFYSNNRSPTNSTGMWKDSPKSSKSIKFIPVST
Experimental: Radioligand Binding Experiments with Human Platelet Membranes
Platelet Source: Hudson Valley Blood Services, Westchester Medical Center, Valhalla, N.Y.
Platelet Membrane Preparation:
Frozen platelet rich plasma (PRP), received from the Hudson Valley Blood Services are thawed to room temperature. The tubes containing the PRP are centrifuged at 16,000×g for 10 min. at 4° C. and the supernatant fluid discarded. The platelets resuspended in an equal volume of 50.0 mMTris.HCl, pH 7.5 containing 120 mM NaCl and 20.0 mM EDTA. The suspension is recentrifuged at 16,000×g for 10 min. This washing step is repeated one more time. The wash is discarded and the lysed pellets homogenized in low ionic strength buffer of Tris.HCl, 5.0 mM, pH 7.5 containing 5.0 mM EDTA. The homogenate is centrifuged at 39,000×g for 10 min. The resulting pellet is resuspended in Tris.HCl buffer, 70.0 mM, pH 7.5 and recentrifuged at 39,000×g for 10 min. The final pellet is resuspended in 50.0 mM Tris.HCl buffer pH 7.4 containing 120 mM NaCl and 5.0 mM HCl to give 1.0-2.0 mg protein per ml of suspension.
Binding to Vasopressin V1 Receptor Subtype in Human Platelet Membranes:
In wells of a 96 well format microtiter plate, add 100 μl of 50.0 mM Tris.HCl buffer containing 0.2% BSA and a mixture of protease inhibitors (aprotinin, leupeptin etc.). Then add 20 μl of [^3 H]Ligand: (Manning or Arg^8 Vasopressin), to give final concentrations ranging from 0.01 to 10.0 nM. Initiate the binding by adding 80.0 μl of platelet suspension (approx. 100 μg protein). Mix all reagents by pipetting the mixture up and down a few times. Non-specific binding is measured in the presence of 1.0 μM of unlabeled ligand (Manning or Arg^8 Vasopressin). Let the mixture stand undisturbed at room temperature for ninety (90) min. Upon this time, rapidly filter off the incubate under vacuum suction over GF/B filters, using a Brandel® Harvester. Determine the radioactivity caught on the filter disks by the addition of liquid scintillant and counting in a liquid scintillator

oxytocin receptors = target: T3, oxytocin receptors (Rattus norvegicus, UniProt P70536); assay: Oxytocin Receptor Binding; parameters: species or system Sprague-Dawley rats; conditions: 10 μM
T3 construct: The uteri are dissected out, cleaned of fat and connective tissues; from tissue; host or cells: uterus membranes of DES-treated female Sprague-Dawley rats
T3 sequence (P70536 1-388): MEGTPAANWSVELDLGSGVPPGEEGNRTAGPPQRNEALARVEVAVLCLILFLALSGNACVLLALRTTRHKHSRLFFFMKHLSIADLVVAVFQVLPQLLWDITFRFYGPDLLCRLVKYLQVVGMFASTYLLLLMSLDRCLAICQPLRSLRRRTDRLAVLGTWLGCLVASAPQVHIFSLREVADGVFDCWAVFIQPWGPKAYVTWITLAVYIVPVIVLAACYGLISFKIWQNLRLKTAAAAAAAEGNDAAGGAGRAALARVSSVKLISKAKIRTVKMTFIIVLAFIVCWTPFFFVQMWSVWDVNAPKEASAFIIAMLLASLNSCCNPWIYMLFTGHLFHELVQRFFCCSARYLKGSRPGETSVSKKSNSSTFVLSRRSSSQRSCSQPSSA
Experimental: Oxytocin Receptor Binding
Female Sprague-Dawley rats weighing approximately 200-250 g are injected intramuscularly (i.m.) with 0.3 mg/kg of body weight of diethylstilbestrol (DES). The rats are sacrificed 18 hours later under pentobarbital anesthesia. The uteri are dissected out, cleaned of fat and connective tissues and rinsed in 50 ml of normal saline. The tissue pooled from six rats is homogenized in 50 ml of 0.01 mMTris.HCl, containing 0.5 mM dithiothreitol and 1.0 mM EDTA, adjusted to pH 7.4, using a polytron at setting 6 with three passes of 10 sec each. The homogenate is passed through two (2) layers of cheesecloth and the filtrate centrifuged at 1000×g for 10 min. The clear supernatant is removed and recentrifuged at 165,000×g for 30 min. The resulting pellet containing the oxytocin receptors is resuspended in 50.0 mM Tris.HCl containing 5.0 mM MgCl2 at pH 7.4, to give a protein concentration of 2.5 mg/ml of tissue suspension. This preparation is used in subsequent binding assays with [^3 H]Oxytocin.
Binding of 3,5-[^3 H]Oxytocin ([^3 H]OT) to its receptors is done in microtiter plates using [^3 H]OT, at various concentrations, in an assay buffer of 50.0 mM Tris.HCl, pH 7.4 and containing 5.0 mM MgCl2, and a mixture of protease inhibitors: BSA, 0.1 mg; aprotinin, 1.0 mg; 1,10-phenanthroline, 2.0 mg; […], 10.0 mg; and PMSF, 0.3 mg per 100 ml of buffer solution. Nonspecific binding is determined in the presence of 1.0 uM unlabeled OT. The binding reaction is terminated after 60 min., at 22° C., by rapid filtration through glass fiber filters using a Brandel® cell harvester (Biomedical Research and Development Laboratories, Inc., Gaithersburg, Md.). Competition experiments are conducted at equilibrium using 1.0 nM [^3 H]OT and varying the concentration of the displacing agents. The concentrations of agent displacing 50% of [^3 H]OT at its sites (IC50) are calculated by a computer assisted LUNDON-2 program (LUNDON SOFTWARE INC., Ohio, USA).

T1 sequence (Q00788 whole entry): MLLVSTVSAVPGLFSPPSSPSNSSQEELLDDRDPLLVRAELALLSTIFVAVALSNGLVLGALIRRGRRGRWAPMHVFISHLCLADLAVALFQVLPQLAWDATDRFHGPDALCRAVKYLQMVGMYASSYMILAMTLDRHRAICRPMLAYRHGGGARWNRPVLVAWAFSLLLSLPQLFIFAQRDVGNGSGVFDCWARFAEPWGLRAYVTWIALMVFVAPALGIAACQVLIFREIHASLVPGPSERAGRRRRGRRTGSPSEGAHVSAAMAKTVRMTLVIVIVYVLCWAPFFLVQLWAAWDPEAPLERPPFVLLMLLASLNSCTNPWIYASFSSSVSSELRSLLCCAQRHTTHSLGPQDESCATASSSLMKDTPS

IC50 [1]: 0.03 µM
IC50 [2]: 1.3 µM
inhibition at 10 µM (oxytocin receptors): 76%
SMILES: Cc1ccc(F)cc1C(=O)Nc1ccc(C(=O)N2CCC=Cc3sccc32)c(Cl)c1 [Example 184, N-[4-[(5,6-Dihydro-4H-thieno[3,2-b]azepin-4-yl)carbonyl]-3-chlorophenyl]-5-fluoro-2-methylbenzamide]

— patent publication US5696112A, “Fused heterocyclic azepines as vasopressin antagonists” (American Cyanamid Company, priority 1995, dated 1997)
